This note sets out measurements from PubChem BioAssay AID192 (DTP/NCI, 2004).

The assay has as its system BDF1 mice, B16 melanoma ip, median survival T/C. In words: NCI In Vivo Anticancer Drug Screen. Data for tumor model B16 Melanoma (intraperitoneal) in B6D2F1 (BDF1) mice. To be noted: endpoint: median survival time, higher = longer survival. The method in brief: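 Read-out: survival or tumor size, given as treated/control ratio. Controls received vehicle only; animals bore transplantable tumors.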

The mark [1] stands for this setting: dose: 1.0 mg/kg/injection, schedule: Q01DX009 (ip), vehicle: saline with Tween-80.
Where [2] appears, read: dose: 25.0 mg/kg/injection, schedule: Q04DX003 (ip), vehicle: Klucel (hydroxypropylcellulose) (HPC).
The mark [3] stands for this setting: dose: 7.5 mg/kg/injection, schedule: Q01DX009 (ip), vehicle: saline.
[4] abbreviates: dose: 15.0 mg/kg/injection, schedule: Q01DX009 (ip), vehicle: saline.
Where [5] appears, read: dose: 30.0 mg/kg/injection, schedule: Q01DX009 (ip), vehicle: saline.

The structures appear in SMILES notation. Where “and” joins values, the source holds several entries; their conditions need not be identical. Identical values can stand only once. Inconclusive results and toxic doses are left out. Numbered stars: 1 amine (or outer) side, 2 acyl side, 3 side chain; on linkers, the order of the positions; unused ones are H or OH. Bridge positions count the residues as written; N and C are the ends. Square brackets hold non-standard residues; d marks the D form. Peptide text beside a SMILES is read from it. I, II: the chains in the order shown. Actinocin(1to9) = Cc1c2oc3c(C)ccc(C(=O)[*:2])c3nc-2c(C(=O)[*:1])c(N)c1=O; NMeV = CN[CH](C(=O)O)C(C)C; Aze = O=C(O)[CH]1CCN1; Sar = CNCC(=O)O

Regarding `COC(=O)C[C@](O)(CCCC(C)(C)O)C(=O)O[C@@H]1C(OC)=C[C@]23CCCN2CCc2cc4c(cc2[C@H]13)OCO4`, the T/C was 107 % of control (dose: 0.13 mg/kg/injection, schedule: Q01DX009 (ip), vehicle: saline sonified); 120 % of control (dose: 0.25 mg/kg/injection, schedule: Q01DX009 (ip), vehicle: saline sonified); 114 % of control (dose: 0.25 mg/kg/injection, schedule: Q01DX009 (ip), vehicle: saline with Tween-80); 121 % of control (dose: 0.98 mg/kg/injection, schedule: Q04DX003 (ip), vehicle: saline); 111 % of control under setting [1]; 117 % of control (dose: 1.4 mg/kg/injection, schedule: Q04DX003 (ip), vehicle: saline). Also, the T/C (dose: 2.0 mg/kg/injection, schedule: Q04DX003 (ip), vehicle: saline) was 118 % of control and the T/C (dose: 2.86 mg/kg/injection, schedule: Q04DX003 (ip), vehicle: saline) is 117 % of control.
In the case of `CN(C)N=Nc1ccc(NC(N)=O)cc1`, the T/C is 123 % of control (dose: 18.75 mg/kg/injection, schedule: Q01DX009 (ip), vehicle: Klucel (hydroxypropylcellulose) (HPC)) and 86 % of control (dose: 37.5 mg/kg/injection, schedule: Q01DX009 (ip), vehicle: Klucel (hydroxypropylcellulose) (HPC)).
Take `O=Nc1ccc(O)c(=O)cc1`: the T/C under setting [1] is 97 % of control and the T/C (dose: 2.0 mg/kg/injection, schedule: Q01DX009 (ip), vehicle: saline with Tween-80) is 90 % of control.
`COc1cc(NS(C)(=O)=O)ccc1Nc1c2ccccc2nc2c(C)cccc12`: the T/C reads like this: (dose: 2.0 mg/kg/injection, schedule: Q01DX009 (ip), vehicle: saline) 151 % of control; (dose: 2.5 mg/kg/injection, schedule: Q01DX009 (ip), vehicle: other) 180 % of control; (dose: 4.0 mg/kg/injection, schedule: Q01DX009 (ip), vehicle: saline) 213 % of control; (dose: 5.0 mg/kg/injection, schedule: Q01DX009 (ip), vehicle: other) 190 % of control; (dose: 5.0 mg/kg/injection, schedule: Q01DX009 (ip), vehicle: saline with Tween-80) 167 % of control; (dose: 10.0 mg/kg/injection, schedule: Q01DX001 (ip), vehicle: saline sonified) 163 % of control. For the same compound, the T/C reads like this: (dose: 12.5 mg/kg/injection, schedule: Q04DX003 (ip), vehicle: Klucel (hydroxypropylcellulose) (HPC)) 160 % of control; (dose: 20.0 mg/kg/injection, schedule: Q01DX001 (ip), vehicle: saline sonified) 166 % of control; under setting [2], 200 % of control; (dose: 60.0 mg/kg/injection, schedule: Q01DX001 (ip), vehicle: saline sonified) 183 % of control.
For the compound `Cc1c2oc3c(C)ccc(C(=O)NC4C(=O)NC(C(C)C)C(=O)N5CCCC5C(=O)N(C)CC(=O)N(C)C(C(C)C)C(=O)OC4C)c3nc-2c(C(=O)NC2C(=O)NC(C(C)C)C(=O)N3CCC3C(=O)N(C)CC(=O)N(C)C(C(C)C)C(=O)OC2C)c(N)c1=O` (configuration not stated) (I: TV[Aze][Sar][NMeV] / II: TVP[Sar][NMeV]; ester I:1-I:C, II:1-II:C; linker I:N-II:N via Actinocin(1to9); configuration not given here), the T/C by setting is: (dose: 0.23 mg/kg/injection, schedule: Q01DX009 (ip), vehicle: saline + alcohol) 172 % of control; (dose: 0.3 mg/kg/injection, schedule: Q04DX003 (ip), vehicle: saline + alcohol) 163 % of control; (dose: 19.4 micrograms/kg/injection, schedule: Q01DX009 (ip), vehicle: saline + alcohol) 107 % of control; (dose: 37.0 micrograms/kg/injection, schedule: Q01DX009 (ip), vehicle: saline + alcohol) 182 % of control; (dose: 75.0 micrograms/kg/injection, schedule: Q01DX009 (ip), vehicle: saline + alcohol) 156 % of control and 190 % of control; (dose: 100.0 micrograms/kg/injection, schedule: Q01DX009 (ip), vehicle: saline + alcohol) 151 % of control. For the same compound, the T/C is, setting by setting: (dose: 150.0 micrograms/kg/injection, schedule: Q01DX009 (ip), vehicle: saline + alcohol) 159 % of control; (dose: 250.0 micrograms/kg/injection, schedule: Q01DX009 (ip), vehicle: saline + alcohol) 153 % of control.
For the compound `[Cu+2].[NH-]C(CC(=O)O)C(=O)O.[NH-]C(CC(=O)O)C(=O)O` (configuration not stated), the T/C was 98 % of control (dose: 4.68 mg/kg/injection, schedule: Q01DX009 (ip), vehicle: saline) and 101 % of control (dose: 9.37 mg/kg/injection, schedule: Q01DX009 (ip), vehicle: saline).
As for `CCC(C)C(NC(=O)c1ccccc1)C(=O)O` (configuration not stated), the T/C (dose: 6.25 mg/kg/injection, schedule: Q01DX009 (ip), vehicle: saline with Tween-80) is 100 % of control; the T/C (dose: 12.5 mg/kg/injection, schedule: Q01DX009 (ip), vehicle: saline with Tween-80) is 101 % of control; the T/C (dose: 25.0 mg/kg/injection, schedule: Q01DX009 (ip), vehicle: saline with Tween-80) was 95 % of control; the T/C (dose: 50.0 mg/kg/injection, schedule: Q01DX009 (ip), vehicle: saline with Tween-80) is 90 % of control and 94 % of control.
Take `Cn1c(=O)c2c(ncn2CCO)n(C)c1=O`: the T/C is, setting by setting: (dose: 100.0 mg/kg/injection, schedule: Q01DX009 (ip), vehicle: saline) 120 % of control; (dose: 200.0 mg/kg/injection, schedule: Q01DX009 (ip), vehicle: saline) 122 % of control.
For `C/C=C1/C[C@@H](C)[C@@](C)(O)C(=O)OCC2=CC[N+]3([O-])CC[C@@H](OC1=O)[C@@H]23` (some centres not stated), the T/C reads like this: (dose: 10.0 mg/kg/injection, schedule: Q01DX009 (ip), vehicle: saline) 102 % of control; (dose: 20.0 mg/kg/injection, schedule: Q01DX009 (ip), vehicle: saline) 106 % of control; (dose: 40.0 mg/kg/injection, schedule: Q01DX009 (ip), vehicle: saline) 113 % of control; (dose: 80.0 mg/kg/injection, schedule: Q01DX009 (ip), vehicle: saline) 102 % of control.
For the compound `NCCCC(NN)C(=O)O` (configuration not stated), the T/C was 109 % of control under setting [3], 111 % of control under setting [4] and 104 % of control under setting [5].
As to `COc1cc(O)c2c(c1)C(=O)c1cc3c(c(O)c1C2=O)CC(OC)C(C)(O)C3=O` (configuration not stated), the T/C is, setting by setting: (dose: 25.0 mg/kg/injection, schedule: Q01DX009 (ip), vehicle: other) 104 % of control; (dose: 50.0 mg/kg/injection, schedule: Q01DX009 (ip), vehicle: other) 91 % of control; (dose: 100.0 mg/kg/injection, schedule: Q01DX009 (ip), vehicle: other) 91 % of control.
As to `C/C(=C\c1ccccc1)C(=O)c1ccccc1`, the T/C is 100 % of control (dose: 100.0 mg/kg/injection, schedule: Q04DX003 (ip), vehicle: saline with Tween-80); 113 % of control (dose: 200.0 mg/kg/injection, schedule: Q04DX003 (ip), vehicle: saline with Tween-80); 92 % of control (dose: 400.0 mg/kg/injection, schedule: Q04DX003 (ip), vehicle: saline with Tween-80).
In the case of `Cc1ccc(NS(=O)(=O)c2ccc([N+](=O)[O-])cc2)cc1`, the T/C reads like this: under setting [2], 115 % of control; (dose: 50.0 mg/kg/injection, schedule: Q04DX003 (ip), vehicle: Klucel (hydroxypropylcellulose) (HPC)) 103 % of control; (dose: 100.0 mg/kg/injection, schedule: Q04DX003 (ip), vehicle: Klucel (hydroxypropylcellulose) (HPC)) 108 % of control; (dose: 200.0 mg/kg/injection, schedule: Q04DX003 (ip), vehicle: Klucel (hydroxypropylcellulose) (HPC)) 97 % of control; (dose: 400.0 mg/kg/injection, schedule: Q04DX003 (ip), vehicle: Klucel (hydroxypropylcellulose) (HPC)) 115 % of control.
Regarding `COCCNCCN1CCN(CCCN2c3ccccc3Sc3ccc(C(F)(F)F)cc32)CC1`, the T/C reads like this: (dose: 3.75 mg/kg/injection, schedule: Q01DX009 (ip), vehicle: saline) 109 % of control; under setting [3], 107 % of control; under setting [4], 111 % of control; under setting [5], 88 % of control.
As for `O=C1C=CC(=O)c2c(O)c(CBr)c(CBr)c(O)c21`, the T/C is, setting by setting: (dose: 6.25 mg/kg/injection, schedule: Q01DX009 (ip), vehicle: Klucel (hydroxypropylcellulose) (HPC)) 102 % of control; (dose: 12.5 mg/kg/injection, schedule: Q01DX009 (ip), vehicle: Klucel (hydroxypropylcellulose) (HPC)) 101 % of control; (dose: 25.0 mg/kg/injection, schedule: Q01DX009 (ip), vehicle: Klucel (hydroxypropylcellulose) (HPC)) 100 % of control; (dose: 50.0 mg/kg/injection, schedule: Q01DX009 (ip), vehicle: Klucel (hydroxypropylcellulose) (HPC)) 94 % of control.
As to `C=NCC#N`, the T/C was 93 % of control (dose: 100.0 mg/kg/injection, schedule: Q01DX009 (ip), vehicle: saline with Tween-80); 88 % of control (dose: 200.0 mg/kg/injection, schedule: Q01DX009 (ip), vehicle: saline with Tween-80); 93 % of control (dose: 400.0 mg/kg/injection, schedule: Q01DX009 (ip), vehicle: saline with Tween-80).
